≈ marks a conversion by molar mass, not a printed value. Like-named read-outs stand apart in the source and are kept apart here.
Key:
Experiment in all cases: Anti-fungal MIC assay
Format in all cases: cell-based
Candida auris DI17-48 = conditions: Candidozyma auris
Procedure, shortened: (§1)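 First, DMSO stocks (6400 μg/ml, 100× highest test level) were diluted to 2× in RPMI-1640 with MOPS at pH 7.0. Trays were then held at 35° C without agitation.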

Candida auris DI17-46 = conditions: Candidozyma auris
Procedure, shortened: as §1

[1] = test system: Blastomyces dermatitidis BD1
Procedure, shortened: as §1

[2] = test system: Aspergillus fumigatus AF2
Procedure, shortened: as §1

Candida albicans CA3 = test system: Candida albicans CA3
Procedure, shortened: as §1

Candida albicans CA6 = test system: Candida albicans CA6
Procedure, shortened: as §1

Candida albicans CA5 = test system: Candida albicans CA5
Procedure, shortened: as §1

[3] = test system: Candida parapsilosis ATCC22019; conditions: Lodderomyces parapsilosis
Procedure, shortened: as §1

[4] = test system: Aspergillus fumigatus AF293
Procedure, shortened: as §1

[5] = test system: Candida guilliermondii Cgui1; conditions: Meyerozyma guilliermondii
Procedure, shortened: as §1

[6] = test system: Candida guilliermondii Cgui2; conditions: Meyerozyma guilliermondii
Procedure, shortened: as §1

Candida krusei ATCC6258 = conditions: Pichia kudriavzevii
Procedure, shortened: as §1

Candida parapsilosis CP2 = conditions: Lodderomyces parapsilosis
Procedure, shortened: as §1

Candida glabrata CG3 = conditions: Nakaseomyces glabratus
Procedure, shortened: as §1

[7] = test system: Paecilomyces variotii MYA-3630
Procedure, shortened: as §1

Candida auris DI17-47 = conditions: Candidozyma auris
Procedure, shortened: as §1

[8] = test system: Candida albicans ATCC90028
Procedure, shortened: as §1

Candida glabrata 05-62 = test system: Candida glabrata 05-62
Procedure, shortened: as §1

Candida parapsilosis CP1 = test system: Candida parapsilosis CP1
Procedure, shortened: as §1

[9] = test system: Candida guilliermondii Cgui3; conditions: Meyerozyma guilliermondii
Procedure, shortened: as §1

[10] = test system: Cryptococcus neoformans USC 1597
Procedure, shortened: as §1

Candida albicans 43001 = test system: Candida albicans 43001
Procedure, shortened: as §1

[11] = read-out: MIC, 50% growth inhibition
[12] = read-out: MIC, 100% growth inhibition

`N=C(N)c1ccc(CC[C@H]2CCC[C@@H](CCc3ccc(C(=N)N)cc3)C2)cc1` [Compound 3, 4,4′-(2,2′-((1R,3S)-cyclohexane-1,3-diyl)bis(ethane-2,1-diyl))dibenzimidamide] gave an MIC (Candida auris DI17-48; DI1748, read-out: MIC, 50% growth inhibition) of 2 µg/mL (≈ 5.31 µM), an MIC (Candida auris DI17-48; DI1748, read-out: MIC, 100% growth inhibition) of 4 µg/mL (≈ 10.6 µM) and an MIC (Candida auris DI17-46; DI1746, read-out: MIC, 50% growth inhibition) of 2 µg/mL (≈ 5.31 µM). The MIC (Candida auris DI17-46; DI1746, read-out: MIC, 100% growth inhibition) was 4 µg/mL (≈ 10.6 µM), the MIC [1, 11] was 4 µg/mL (≈ 10.6 µM) and the MIC [1, 12] was 8 µg/mL (≈ 21.2 µM). It also gave an MIC [2, 11] of 32 µg/mL (≈ 85 µM), an MIC [2, 12] of 32 µg/mL (≈ 85 µM) and an MIC (Candida albicans CA3; [11]) of 1 µg/mL (≈ 2.66 µM). The MIC (Candida albicans CA3; [12]) was 1 µg/mL (≈ 2.66 µM), the MIC (Candida albicans CA6; [11]) was 0.5 µg/mL (≈ 1.33 µM) and the MIC (Candida albicans CA6; [12]) was 0.5 µg/mL (≈ 1.33 µM). For the same compound, the MIC (Candida albicans CA5; [11]) was 0.25 µg/mL (≈ 0.664 µM), the MIC (Candida albicans CA5; [12]) was 0.5 µg/mL (≈ 1.33 µM) and the MIC ([3]; ATCC22019, C. parapsilosis ATCC 22019, second round (Table 6), read-out: MIC, 50% growth inhibition) was 0.25 µg/mL (≈ 0.664 µM). For the same compound, the MIC ([3]; ATCC22019, Candida parapsilosis ATCC22019, first round (Table 5), read-out: MIC, 50% growth inhibition) was 0.5 µg/mL (≈ 1.33 µM), the MIC ([3]; ATCC22019, read-out: MIC, 100% growth inhibition, C. parapsilosis ATCC 22019, second round (Table 6)) was 0.5 µg/mL (≈ 1.33 µM) and the MIC ([3]; ATCC22019, read-out: MIC, 100% growth inhibition, Candida parapsilosis ATCC22019, first round (Table 5)) was 1 µg/mL (≈ 2.66 µM). The MIC [4, 11] was 16 µg/mL (≈ 42.5 µM), the MIC [4, 12] was 16 µg/mL (≈ 42.5 µM) and the MIC [5, 11] was 1 µg/mL (≈ 2.66 µM). It also gave an MIC [5, 12] of 1 µg/mL (≈ 2.66 µM), an MIC [6, 11] of 2 µg/mL (≈ 5.31 µM) and an MIC [6, 12] of 2 µg/mL (≈ 5.31 µM). For the same compound, the MIC (Candida krusei ATCC6258; ATCC6258, C. krusei ATCC 6258, second round (Table 6), read-out: MIC, 50% growth inhibition) was 0.5 µg/mL (≈ 1.33 µM), the MIC (Candida krusei ATCC6258; ATCC6258, Candida krusei ATCC6258, first round (Table 5), read-out: MIC, 50% growth inhibition) was 8 µg/mL (≈ 21.2 µM) and the MIC (Candida krusei ATCC6258; ATCC6258, read-out: MIC, 100% growth inhibition, C. krusei ATCC 6258, second round (Table 6)) was 1 µg/mL (≈ 2.66 µM). The MIC (Candida krusei ATCC6258; ATCC6258, read-out: MIC, 100% growth inhibition, Candida krusei ATCC6258, first round (Table 5)) was 8 µg/mL (≈ 21.2 µM), the MIC (Candida parapsilosis CP2; [11]) was 1 µg/mL (≈ 2.66 µM) and the MIC (Candida parapsilosis CP2; [12]) was 4 µg/mL (≈ 10.6 µM). The MIC (Candida glabrata CG3; [11]) was 0.5 µg/mL (≈ 1.33 µM), the MIC (Candida glabrata CG3; [12]) was 1 µg/mL (≈ 2.66 µM) and the MIC ([7]; MYA3630, read-out: MIC, 50% growth inhibition) was 1 µg/mL (≈ 2.66 µM). The MIC ([7]; MYA3630, read-out: MIC, 100% growth inhibition) was 1 µg/mL (≈ 2.66 µM), the MIC (Candida auris DI17-47; DI1747, read-out: MIC, 50% growth inhibition) was 1 µg/mL (≈ 2.66 µM) and the MIC (Candida auris DI17-47; DI1747, read-out: MIC, 100% growth inhibition) was 4 µg/mL (≈ 10.6 µM). The MIC [8, 11] was 0.5 µg/mL (≈ 1.33 µM), the MIC [8, 12] was 1 µg/mL (≈ 2.66 µM) and the MIC (Candida glabrata 05-62; Nakaseomyces glabratus, 0562, read-out: MIC, 50% growth inhibition) was 2 µg/mL (≈ 5.31 µM). For the same compound, the MIC (Candida glabrata 05-62; Nakaseomyces glabratus, 0562, read-out: MIC, 100% growth inhibition) was 4 µg/mL (≈ 10.6 µM), the MIC (Candida parapsilosis CP1; [11]) was 1 µg/mL (≈ 2.66 µM) and the MIC (Candida parapsilosis CP1; [12]) was 8 µg/mL (≈ 21.2 µM). The MIC [9, 11] was 2 µg/mL (≈ 5.31 µM), the MIC [9, 12] was 2 µg/mL (≈ 5.31 µM) and the MIC ([10]; USC1597, read-out: MIC, 50% growth inhibition) was 0.5 µg/mL (≈ 1.33 µM). It also gave an MIC ([10]; USC1597, read-out: MIC, 100% growth inhibition) of 0.5 µg/mL (≈ 1.33 µM), an MIC (Candida albicans 43001; [11]) of 0.25 µg/mL (≈ 0.664 µM) and an MIC (Candida albicans 43001; [12]) of 0.5 µg/mL (≈ 1.33 µM).
